The Inhibition is the relative decrease from the control value, in per cent. As usually defined, the IC50 is the midpoint of a concentration-inhibition curve. Lower therefore signals greater potency. In general, Emax refers to the size of the effect at its maximum, as opposed to the concentration needed.

Experiment [1] is filed under the species Cavia porcellus. The experiment is described as follows: Inhibitory contractile effect of compound in guinea-pig tracheal strips induced by LTD4 (100 nM) (% contraction, obtained in the vehicle presence 100.0%). The class given is functional, Trachea.
Experiment [2] is filed under the species Cavia porcellus. Kind of experiment: Inhibitory contractile effect of compound in guinea-pig tracheal strips induced by LTD4 (100 nM) (% inhibition obtained by comparison with control group). It is filed as functional, Trachea.
For experiment [3], the species on record is Cavia porcellus. The experiment is described as follows: 50% inhibitory concentration on the LTD4 (100 nM) induced contraction of guinea-pig tracheal strip bioassay. It is filed as functional. Particulars: Trachea.
Experiment [4] is filed under the species Cavia porcellus. The experiment is described as follows: Maximum effect on the LTD4 (100 nM) induced contraction of guinea-pig tracheal strips bioassay. It is filed as functional. To be noted: Trachea.

Consider `CC(Oc1ccc(CCN2C(=O)c3ccccc3C2=O)cc1)C(=O)O` (configuration not stated), for which the Contraction in experiment [1] was 91.4%. The Inhibition in experiment [2] is 8.6%.

In experiment [1], `O=C(O)COc1ccc(CCN2C(=O)c3ccccc3C2=O)cc1` returned a Contraction of 101.5%. The Inhibition in experiment [2] was -1.5%.

With `O=C1c2ccccc2C(=O)N1CCc1ccc(OCCCc2nn[nH]n2)cc1`, in experiment [1], the Contraction amounted to 52.4%. In experiment [3], this molecule showed an IC50 of 31.2 µM. Moreover, the Inhibition in experiment [2] was 47.6%. Besides, in experiment [4], the maximal response (Emax) worked out at 100%.

In experiment [1], `O=C(O)CCCOc1ccc(CCN2C(=O)c3ccccc3C2=O)cc1` gave a Contraction of 80.3%. Further, in experiment [2], the Inhibition was 19.7%.

`O=C(O)CCCCOc1ccc(CCN2C(=O)c3ccccc3C2=O)cc1`: in experiment [1], the Contraction is reported as 97.6%. Further, the Inhibition in experiment [2] stood at 2.4%.

`O=C(O)c1ccc(COc2ccc(CCN3C(=O)c4ccccc4C3=O)cc2)cc1` registered a Contraction in experiment [1] of 93.7%. The Inhibition in experiment [2] is on record as 6.3%.

Molecule `O=C(O)CCCC(=O)Oc1ccc(CCN2C(=O)c3ccccc3C2=O)cc1` displayed a Contraction in experiment [1] of 73.9%. In addition, in experiment [2], the Inhibition is on record as 26.1%.

For `COc1cc(C(=O)NS(=O)(=O)c2ccccc2C)ccc1Cc1cn(C)c2ccc(NC(=O)OC3CCCC3)cc12` [ZAFIRLUKAST], the IC50 in experiment [3] came to 0.00103 µM.
